In PubChem BioAssay (NCI):
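Results reflect a 48-hour exposure of cells in 96-well plates to compound at five concentrations. At the TGI there is no net growth.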

How the values were obtained:
Assay in all cases: inhibition of tumour cell growth, NCI panel, 48 h
786-0 renal = test system: 786-0 renal
A498 renal = test system: A498 renal
A549 NSCLC = test system: A549 NSCLC
ACHN renal = test system: ACHN renal
CAKI-1 renal = test system: CAKI-1 renal
CCRF-CEM leukemia = test system: CCRF-CEM leukemia
COLO 205 colon = test system: COLO 205 colon
DLD-1 colon = test system: DLD-1 colon
DMS 114 small cell lung = test system: DMS 114 small cell lung
DMS 273 small cell lung = test system: DMS 273 small cell lung
EKVX NSCLC = test system: EKVX NSCLC
HCC-2998 colon = test system: HCC-2998 colon
HCT-116 colon = test system: HCT-116 colon
HL-60(TB) leukemia = test system: HL-60(TB) leukemia
HOP-18 NSCLC = test system: HOP-18 NSCLC
HOP-62 NSCLC = test system: HOP-62 NSCLC
HOP-92 NSCLC = test system: HOP-92 NSCLC
HT29 colon = test system: HT29 colon
IGROV1 ovarian = test system: IGROV1 ovarian
K-562 leukemia = test system: K-562 leukemia
KM12 colon = test system: KM12 colon
KM20L2 colon = test system: KM20L2 colon
LOX IMVI melanoma = test system: LOX IMVI melanoma
LXFL 529 NSCLC = test system: LXFL 529 NSCLC
M14 melanoma = test system: M14 melanoma
M19-MEL melanoma = test system: M19-MEL melanoma
MALME-3M melanoma = test system: MALME-3M melanoma
MOLT-4 leukemia = test system: MOLT-4 leukemia
NCI-H226 lung = test system: NCI-H226 lung
NCI-H23 lung = test system: NCI-H23 lung
NCI-H460 lung = test system: NCI-H460 lung
NCI-H522 lung = test system: NCI-H522 lung
OVCAR-3 ovarian = test system: OVCAR-3 ovarian
OVCAR-4 ovarian = test system: OVCAR-4 ovarian
OVCAR-5 ovarian = test system: OVCAR-5 ovarian
OVCAR-8 ovarian = test system: OVCAR-8 ovarian
RPMI-8226 leukemia = test system: RPMI-8226 leukemia
RXF 393 renal = test system: RXF 393 renal
SF-268 CNS = test system: SF-268 CNS
SF-295 CNS = test system: SF-295 CNS
SF-539 CNS = test system: SF-539 CNS
SK-MEL-2 melanoma = test system: SK-MEL-2 melanoma
SK-MEL-28 melanoma = test system: SK-MEL-28 melanoma
SK-MEL-5 melanoma = test system: SK-MEL-5 melanoma
SK-OV-3 ovarian = test system: SK-OV-3 ovarian
SN12C renal = test system: SN12C renal
SNB-19 CNS = test system: SNB-19 CNS
SNB-75 CNS = test system: SNB-75 CNS
SR leukemia = test system: SR leukemia
SW-620 colon = test system: SW-620 colon
TK-10 renal = test system: TK-10 renal
U251 CNS = test system: U251 CNS
UACC-257 melanoma = test system: UACC-257 melanoma
UACC-62 melanoma = test system: UACC-62 melanoma
UO-31 renal = test system: UO-31 renal
HCT-15 colon = test system: HCT-15 colon
XF 498 CNS = test system: XF 498 CNS

## COc1cc(/C=C2\NC(=S)C3Cc4c(OC)c(C)c(OC)c(OC)c4C2N3C)c(OC)c(C)c1OC (configuration not stated)
786-0 renal
  TGI: > 100 µM
A498 renal
  TGI: > 100 µM
A549 NSCLC
  TGI: > 100 µM
ACHN renal
  TGI: > 100 µM
CAKI-1 renal
  TGI: > 100 µM
CCRF-CEM leukemia
  TGI: > 100 µM
COLO 205 colon
  TGI: 35.2 µM
DLD-1 colon
  TGI: > 100 µM
DMS 114 small cell lung
  TGI: 92.1 µM
DMS 273 small cell lung
  TGI: > 100 µM
EKVX NSCLC
  TGI: > 100 µM
HCC-2998 colon
  TGI: > 100 µM
HCT-116 colon
  TGI: > 100 µM
HL-60(TB) leukemia
  TGI: 67.6 µM
HOP-18 NSCLC
  TGI: > 100 µM
HOP-62 NSCLC
  TGI: > 100 µM
HOP-92 NSCLC
  TGI: > 100 µM
HT29 colon
  TGI: > 100 µM
IGROV1 ovarian
  TGI: > 100 µM
K-562 leukemia
  TGI: > 100 µM
KM12 colon
  TGI: > 100 µM
KM20L2 colon
  TGI: > 100 µM
LOX IMVI melanoma
  TGI: > 100 µM
LXFL 529 NSCLC
  TGI: > 100 µM
M14 melanoma
  TGI: > 100 µM
M19-MEL melanoma
  TGI: > 100 µM
MALME-3M melanoma
  TGI: > 100 µM
MOLT-4 leukemia
  TGI: > 100 µM
NCI-H226 lung
  TGI: > 100 µM
NCI-H23 lung
  TGI: > 100 µM
NCI-H460 lung
  TGI: 30 µM
NCI-H522 lung
  TGI: 97.9 µM
OVCAR-3 ovarian
  TGI: > 100 µM
OVCAR-4 ovarian
  TGI: > 100 µM
OVCAR-5 ovarian
  TGI: > 100 µM
OVCAR-8 ovarian
  TGI: > 100 µM
RPMI-8226 leukemia
  TGI: > 100 µM
RXF 393 renal
  TGI: 67.6 µM
SF-268 CNS
  TGI: > 100 µM
SF-295 CNS
  TGI: > 100 µM
SF-539 CNS
  TGI: > 100 µM
SK-MEL-2 melanoma
  TGI: > 100 µM
SK-MEL-28 melanoma
  TGI: > 100 µM
SK-MEL-5 melanoma
  TGI: 73.1 µM
SK-OV-3 ovarian
  TGI: > 100 µM
SN12C renal
  TGI: > 100 µM
SNB-19 CNS
  TGI: > 100 µM
SNB-75 CNS
  TGI: > 100 µM
SR leukemia
  TGI: 55.3 µM
SW-620 colon
  TGI: > 100 µM
TK-10 renal
  TGI: > 100 µM
U251 CNS
  TGI: > 100 µM
UACC-257 melanoma
  TGI: > 100 µM
UACC-62 melanoma
  TGI: > 100 µM
UO-31 renal
  TGI: > 100 µM

## O=C(/C=N/O)Nc1ccc(Cl)c(I)c1
786-0 renal
  TGI: 88.4 µM
A549 NSCLC
  TGI: 94 µM
ACHN renal
  TGI: 85.2 µM
CAKI-1 renal
  TGI: 45.2 µM
CCRF-CEM leukemia
  TGI: 94.8 µM
COLO 205 colon
  TGI: 31.7 µM
DLD-1 colon
  TGI: > 100 µM
DMS 114 small cell lung
  TGI: 50 µM
DMS 273 small cell lung
  TGI: 41.9 µM
EKVX NSCLC
  TGI: 63.9 µM
HCC-2998 colon
  TGI: 33.7 µM
HCT-116 colon
  TGI: 25.5 µM
HCT-15 colon
  TGI: 63.9 µM
HL-60(TB) leukemia
  TGI: 54.1 µM
HOP-62 NSCLC
  TGI: 70.7 µM
HT29 colon
  TGI: > 100 µM
IGROV1 ovarian
  TGI: 39.2 µM
K-562 leukemia
  TGI: > 100 µM
KM12 colon
  TGI: 68.3 µM
KM20L2 colon
  TGI: > 100 µM
LOX IMVI melanoma
  TGI: 31.4 µM
LXFL 529 NSCLC
  TGI: 42.1 µM
M14 melanoma
  TGI: 43.7 µM
M19-MEL melanoma
  TGI: 60.9 µM
MALME-3M melanoma
  TGI: 64.2 µM
MOLT-4 leukemia
  TGI: 56.5 µM
NCI-H226 lung
  TGI: 17.8 µM
NCI-H23 lung
  TGI: 42.3 µM
NCI-H460 lung
  TGI: 47.2 µM
NCI-H522 lung
  TGI: 34.6 µM
OVCAR-3 ovarian
  TGI: 60.3 µM
OVCAR-4 ovarian
  TGI: > 100 µM
OVCAR-5 ovarian
  TGI: 62.2 µM
OVCAR-8 ovarian
  TGI: > 100 µM
RPMI-8226 leukemia
  TGI: 77.8 µM
RXF 393 renal
  TGI: 46.7 µM
SF-268 CNS
  TGI: 69.2 µM
SF-295 CNS
  TGI: 94.8 µM
SK-MEL-2 melanoma
  TGI: 31.3 µM
SK-MEL-28 melanoma
  TGI: 72.6 µM
SK-MEL-5 melanoma
  TGI: 35.2 µM
SK-OV-3 ovarian
  TGI: 56 µM
SN12C renal
  TGI: 63.9 µM
SNB-19 CNS
  TGI: 83.9 µM
SR leukemia
  TGI: 61.2 µM
SW-620 colon
  TGI: > 100 µM
TK-10 renal
  TGI: > 100 µM
U251 CNS
  TGI: 39.4 µM
UACC-257 melanoma
  TGI: > 100 µM
UACC-62 melanoma
  TGI: 35.4 µM
UO-31 renal
  TGI: 33.1 µM
XF 498 CNS
  TGI: 64.8 µM
